Data on ten molecules can be found in patent publication US20230265116A1, “DEGRADATION OF (EGFR) BY CONJUGATION OF EGFR INHIBITORS WITH E3 LIGASE LIGAND AND METHODS OF USE” (BEIGENE, LTD., priority 2020, published 2023).

Test [1] concerns the target T1, EGFR L858R/T790M/C797S (BaF3-LTC cells) (Homo sapiens, UniProt P00533, C797S/L858R/T790M).
T1 construct: expressed in transfected cells; host or cells: BaF3
In words: EGFR degradation HTRF assay, BaF3-LTC cells. Type of test: cell-based. The following applies: BaF3-LTC cells; for DC50: EGFR degradation, IC50 (DC50) from curve fit, read-out: DC50(nM) BaF3-LTC; for Dmax: maximum percentage of inhibition (degradation), read-out: Dmax (%) BaF3-LTC. As to the method: (§1) BaF3 WT(wild type), BaF3-LTC(L858R/T790M/C797S) and BaF3-DTC(Del19/T790M/C797S) cells are treated with compounds diluted in 0.2% DMSO cell culture medium and incubate for 16h, 37° C., 5% CO2, H1975-#36, H1975-#28, H1975-#23 and HCC827 cells are treated with compounds diluted in 0.2% DMSO cell culture medium on day 2, incubate for 16h, 37° C., 5% CO2.the final concentriation of compounds in all assay is start with 10 uM, 5-fold dilution, total 8 doses were included.
(§2) After 16h treatment, add HTRF lysis buffer to each well; seal the plate and incubate 1 hour at room temperature on a plate shaker; Once the cells are lysed, 16 μL of cell lysate are transferred to a PE 384-well HTRF detection plate; 4 μL of pre-mixed HTRF antibodies are added to each well; Cover the plate with a plate sealer, spin 1000 rpm for 1 min, Incubate overnight at room temperature; Read on BMG PheraStar with HTRF protocol (337 nm-665 nm-620 nm).
(§3) The inhibition (degradation) percentage of the compound was calculated by the following equation: Inhibition percentage of Compound=100-100×(Signal-low control)/(High control-low control), wherein signal=each test compound group
(§4) High control=Cell group with added DMSO and without compound, indicating microplate readings without EGFR degradation;
(§5) Dmax is the maximum percentage of inhibition (degradation).
(§6) The IC50 (DC50) value of a compound can be obtained by fitting the following equation
(§7) Y=Bottom+(TOP−Bottom)/(1+((IC50/X)^hillslope))
(§8) Wherein, X and Y are known values, and IC50, Hillslope, Top and Bottom are the parameters obtained by fitting with software. Y is the inhibition percentage (calculated from the equation), X is the concentration of the compound; IC50 is the concentration of the compound when the 50% inhibition is reached. The smaller the IC50 value is, the stronger the inhibitory ability of the compound is. Vice versa, the higher the IC50 value is, the weaker the inhibitory ability of the compound is; Hillslope represents the slope of the fitted curve, generally around 1*; Bottom represents the minimum value of the curve obtained by data fitting, which is generally 0%±20%; Top represents the maximum value of the curve obtained by data fitting, which is generally 100%±20%. The experimental data were fitted by calculating and analyzing with Dotmatics data analysis software.
A general note: Time-resolved FRET reads energy transfer from a long-lived donor to a nearby acceptor.

Test [2] deals with EGFR Del19/T790M/C797S (H1975-clone #28). In words: EGFR degradation HTRF assay, H1975-clone #28 DTC cells. Type of test: cell-based. The note with it: H1975 # 28 DTC cells; for DC50: EGFR degradation, IC50 (DC50) from curve fit, read-out: DC50(nM) H1975 # 28 DTC; for Dmax (%) H1975 # 28 DTC: maximum percentage of inhibition (degradation). As to the method:
H1975-clone #28(Del19/T790M/C797S) and H1975-clone #23(Del19/C797S). EGFR-Del19/T790M/C797S and EGFR-Del19/C797S were stably expressed in H1975 cell lines by lentivirus-mediated over-expression, respectively. The EGFR over-expressed cells then underwent gene knockout, in which the EGFR targeting sgRNA was designed to only target the endogenous EGFR copies and preserve the exogenous EGFR copies. Followed by the gene knockout, the edited H1975 cells were seeded in 96 well plates at the concentration of 1 cell/well, cultured for about 2 weeks to allow single clones formation. The formed clones were screened by DNA sequencing and whole exon sequencing analysis for the desired edition. H1975-clone #28 and H1975-clone #23 were finally confirmed as homozygous Del19/T790M/C797S EGFR and Del19/C797S EGFR clones, respectively.
as §1, §2, §3, §4, §5, §6, §7, §8

T1 sequence (P00533 25-1210 T790M/C797S/L858R): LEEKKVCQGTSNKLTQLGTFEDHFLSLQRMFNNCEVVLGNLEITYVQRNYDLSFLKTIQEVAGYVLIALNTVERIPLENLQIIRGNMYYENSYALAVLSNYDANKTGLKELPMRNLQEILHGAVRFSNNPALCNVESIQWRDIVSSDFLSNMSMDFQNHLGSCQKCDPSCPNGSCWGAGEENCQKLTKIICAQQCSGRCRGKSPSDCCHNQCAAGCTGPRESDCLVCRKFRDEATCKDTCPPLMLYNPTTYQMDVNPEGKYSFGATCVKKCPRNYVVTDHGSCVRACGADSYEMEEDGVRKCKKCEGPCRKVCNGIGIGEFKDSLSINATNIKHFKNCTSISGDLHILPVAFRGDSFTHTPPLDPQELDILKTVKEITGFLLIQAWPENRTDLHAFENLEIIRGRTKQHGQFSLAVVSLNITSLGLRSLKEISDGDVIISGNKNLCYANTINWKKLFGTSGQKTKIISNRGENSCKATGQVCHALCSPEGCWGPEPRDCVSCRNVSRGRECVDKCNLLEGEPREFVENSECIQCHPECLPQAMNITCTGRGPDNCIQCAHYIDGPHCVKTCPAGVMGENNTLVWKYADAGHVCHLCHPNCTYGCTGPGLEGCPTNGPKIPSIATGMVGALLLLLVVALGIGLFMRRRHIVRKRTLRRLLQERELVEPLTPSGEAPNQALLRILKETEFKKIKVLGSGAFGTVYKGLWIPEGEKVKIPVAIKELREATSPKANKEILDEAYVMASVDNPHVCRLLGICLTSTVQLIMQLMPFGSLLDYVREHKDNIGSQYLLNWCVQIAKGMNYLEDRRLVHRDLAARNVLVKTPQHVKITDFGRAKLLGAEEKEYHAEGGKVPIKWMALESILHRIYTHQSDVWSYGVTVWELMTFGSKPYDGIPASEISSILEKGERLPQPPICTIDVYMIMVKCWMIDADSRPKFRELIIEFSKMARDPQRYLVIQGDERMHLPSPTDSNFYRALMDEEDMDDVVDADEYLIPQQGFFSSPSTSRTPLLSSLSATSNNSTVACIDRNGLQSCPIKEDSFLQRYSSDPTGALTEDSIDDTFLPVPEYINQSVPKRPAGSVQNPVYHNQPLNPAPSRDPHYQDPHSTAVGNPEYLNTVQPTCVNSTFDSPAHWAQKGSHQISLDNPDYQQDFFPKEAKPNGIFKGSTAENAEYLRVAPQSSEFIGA

The DC50 is the concentration giving 50% degradation. One may read the Dmax as the largest share of the target that was removed. For `CCOc1cc(N2CCC(N3CCN(CCCc4cc(F)c([C@H]5CCC(=O)NC5=O)c(F)c4)CC3)CC2)c(CC)cc1Nc1ncc(Br)c(Nc2cc(F)c3nc(CC)ccc3c2P(C)(C)=O)n1` [Example 567, (R)-3-(4-(3-(4-(1-(4-((5-bromo-4-((5-(dimethylphosphoryl)-2-ethyl-8-fluoroquinolin-6-yl)amino)pyrimidin-2-yl)amino)-5-ethoxy-2-ethylphenyl)piperidin-4-yl)piperazin-1-yl)propyl)-2,6-difluorophenyl)piperidine-2,6-dione], in test [1], the DC50 is 13.2 nM and the Dmax came to 92%. In addition, in test [2], the DC50 was found to be 3.01 nM and the “Dmax (%) H1975 # 28 DTC” value turned out to be 56.23%.

As to `CCOc1cc(N2CCC(N3CCN(CCc4cc(F)c([C@H]5CCC(=O)NC5=O)c(F)c4)CC3)CC2)c(CC)cc1Nc1ncc(C)c(Nc2cc(F)c3nc(CC)ccc3c2P(C)(C)=O)n1` [Example 733, (R)-3-(4-(2-(4-(1-(4-((4-((5-(dimethylphosphoryl)-2-ethyl-8-fluoroquinolin-6-yl)amino)-5-methylpyrimidin-2-yl)amino)-5-ethoxy-2-ethylphenyl)piperidin-4-yl)piperazin-1-yl)ethyl)-2,6-difluorophenyl)piperidine-2,6-dione], the 50% degradation concentration (DC50) in test [1] worked out at 89.9 nM. In addition, in test [2], the DC50 was 7.25 nM and the “Dmax (%) H1975 # 28 DTC” value is listed as 84.52%.

For `CCOc1cc(N2CCC(N3CCN(CCCc4cc(Cl)cc5c4oc(=O)n5C4CCC(=O)NC4=O)CC3)CC2)c(CC)cc1Nc1ncc(Br)c(Nc2ccc3nc(CC)ccc3c2P(C)(C)=O)n1` (centres unmarked) [Example 726, 3-(7-(3-(4-(1-(4-((5-bromo-4-((5-(dimethylphosphoryl)-2-ethylquinolin-6-yl)amino)pyrimidin-2-yl)amino)-5-ethoxy-2-ethylphenyl)piperidin-4-yl)piperazin-1-yl)propyl)-5-chloro-2-oxobenzo[d]oxazol-3(2H)-yl)piperidine-2,6-dione], in test [1], the half-maximal degradation concentration (DC50) came to 7.11 nM and the Dmax amounted to 96.7%. Further, in test [2], the DC50 was 1.46 nM and the “Dmax (%) H1975 # 28 DTC” value came out at 74.13%.

With `CCOc1cc(N2CCC(N3CCN(C(=O)[C@@H]4CCN(c5cc(F)c([C@H]6CCC(=O)NC6=O)c(F)c5)C4)CC3)CC2)c(CC)cc1Nc1ncc(Br)c(Nc2ccc3c(=O)n(C)ncc3c2P(C)(C)=O)n1` [Example 530, (R)-3-(4-((R)-3-(4-(1-(4-((5-bromo-4-((5-(dimethylphosphoryl)-2-methyl-1-oxo-1,2-dihydrophthalazin-6-yl)amino)pyrimidin-2-yl)amino)-5-ethoxy-2-ethylphenyl)piperidin-4-yl)piperazine-1-carbonyl)pyrrolidin-1-yl)-2,6-difluorophenyl)piperidine-2,6-dione], in test [1], the DC50 is 5.05 nM and the Dmax amounted to 94.6%. In addition, in test [2], the DC50 was 1.87 nM and the “Dmax (%) H1975 # 28 DTC” value was found to be 82.54%.

For the molecule `CCOc1cc(N2CCC(N3CCN(CCc4ccc5c(c4)oc(=O)n5C4CCC(=O)NC4=O)CC3)CC2)c(CC)cc1Nc1ncc(Br)c(Nc2ccc3nc(C)ccc3c2P(C)(C)=O)n1` (centres unmarked) [Example 676, 3-(6-(2-(4-(1-(4-((5-bromo-4-((5-(dimethylphosphoryl)-2-methylquinolin-6-yl)amino)pyrimidin-2-yl)amino)-5-ethoxy-2-ethylphenyl)piperidin-4-yl)piperazin-1-yl)ethyl)-2-oxobenzo[d]oxazol-3(2H)-yl)piperidine-2,6-diQne], in test [1], the 50% degradation concentration (DC50) turned out to be 3.14 nM and the Dmax was 96.4%. Moreover, in test [2], the DC50 was 0.64 nM and the “Dmax (%) H1975 # 28 DTC” value turned out to be 88.89%.

In the case of `CCc1ccc2c(P(C)(C)=O)c(Nc3nc(Nc4cc(CC)c(N5CCC(N6CCN(CCCOc7cc(F)c([C@H]8CCC(=O)NC8=O)c(F)c7)CC6)CC5)cc4OC)ncc3Br)ccc2n1` [Example 734, (R)-3-(4-(3-(4-(1-(4-((5-bromo-4-((5-(dimethylphosphoryl)-2-ethylquinolin-6-yl)amino)pyrimidin-2-yl)amino)-2-ethyl-5-methoxyphenyl)piperidin-4-yl)piperazin-1-yl)propoxy)-2,6-difluorophenyl)piperidine-2,6-dione], in test [1], the DC50 turned out to be 7.79 nM and the Dmax stood at 92.2%. Besides, in test [2], the DC50 stood at 0.9 nM and the “Dmax (%) H1975 # 28 DTC” value worked out at 76.3%.

As for `CCOc1cc(N2CCC(N3CCN(CCc4c(F)ccc5c4n(C)c(=O)n5C4CCC(=O)NC4=O)CC3)CC2)c(CC)cc1Nc1ncc(Br)c(Nc2ccc3nc(CC)ncc3c2P(C)(C)=O)n1` (centres unmarked) [Example 736, 3-(4-(2-(4-(1-(4-((5-bromo-4-((5-(dimethylphosphoryl)-2-ethylquinazolin-6-yl)amino)pyrimidin-2-yl)amino)-5-ethoxy-2-ethylphenyl)piperidin-4-yl)piperazin-1-yl)ethyl)-5-fluoro-3-methyl-2-oxo-2,3-dihydro-1H-benzol[d]imidazol-1-yl)piperidine-2,6-dione], in test [1], the DC50 is 4.01 nM. Moreover, in test [2], the DC50 turned out to be 0.564 nM and the “Dmax (%) H1975 # 28 DTC” value was 81.93%.

`CCOc1cc(N2CCC(N3CCN(C(=O)C4CN(c5cc(F)cc6c5n(C)c(=O)n6C5CCC(=O)NC5=O)C4)CC3)CC2)c(CC)cc1Nc1ncc(Br)c(Nc2ccc3nc(CC)ccc3c2P(C)(C)=O)n1` (centres unmarked) [Example 466, 3-(4-(3-(4-(1-(4-((5-bromo-4-((5-(dimethylphosphoryl)-2-ethylquinolin-6-yl)amino)pyrimidin-2-yl)amino)-5-ethoxy-2-ethylphenyl)piperidin-4-yl)piperazine-1-carbonyl)azetidin-1-yl)-6-fluoro-3-methyl-2-oxo-2,3-dihydro-1H-benzo[d]imidazol-1-yl)piperidine-2,6-dione]: in test [1], the DC50 was 15.1 nM and the greatest degradation seen (Dmax) was 90.8%. In addition, in test [2], the half-maximal degradation concentration (DC50) stood at 2.03 nM and the “Dmax (%) H1975 # 28 DTC” value is on record as 72.67%.

With `CCOc1cc(N2CCC(N3CCN(CCc4c(C)ccc5c4n(C)c(=O)n5C4CCC(=O)NC4=O)CC3)CC2)c(CC)cc1Nc1ncc(Br)c(Nc2ccc3nc(CC)ccc3c2P(C)(C)=O)n1` (centres unmarked) [Example 461, 3-(4-(2-(4-(1-(4-((5-bromo-4-((5-(dimethylphosphoryl)-2-ethylquinolin-6-yl)amino)pyrimidin-2-yl)amino)-5-ethoxy-2-ethylphenyl)piperidin-4-yl)piperazin-1-yl)ethyl)-3,5-dimethyl-2-oxo-2,3-dihydro-1H-benzo[d]imidazol-1-yl)piperidine-2,6-dione], in test [1], the DC50 is 132 nM and the Dmax was 90%. Moreover, in test [2], the half-maximal degradation concentration (DC50) worked out at 38.8 nM and the “Dmax (%) H1975 # 28 DTC” value is 75.83%.

As to `CCOc1cc(N2CCC(N3CCN(CC4CN(c5cc(F)c(C6CCC(=O)NC6=O)c(F)c5)C4)CC3)CC2)c(CC)cc1Nc1ncc(Br)c(Nc2ccc3c(=O)n(C)ncc3c2P(C)(C)=O)n1` (centres unmarked) [Example 535, 3-(4-(3-((4-(1-(4-((5-bromo-4-((5-(dimethylphosphoryl)-2-methyl-1-oxo-1,2-dihydrophthalazin-6-yl)amino)pyrimidin-2-yl)amino)-5-ethoxy-2-ethylphenyl)piperidin-4-yl)piperazin-1-yl)methyl)azetidin-1-yl)-2,6-difluorophenyl)piperidine-2,6-dione], in test [1], the DC50 turned out to be 9.87 nM and the Dmax stood at 93.8%. In test [2], the half-maximal degradation concentration (DC50) worked out at 1.13 nM and the “Dmax (%) H1975 # 28 DTC” value is on record as 82.79%.
